Activity calls are given as the source filed them. The calls are words filed in the database; no cut-off is given here.
Assays:
[1] = target: T1, Tyrosine-protein kinase receptor UFO (Homo sapiens, UniProt P30530); assay: Inhibition of AXL (unknown origin) by FRET assay
T1 sequence (P30530 whole entry): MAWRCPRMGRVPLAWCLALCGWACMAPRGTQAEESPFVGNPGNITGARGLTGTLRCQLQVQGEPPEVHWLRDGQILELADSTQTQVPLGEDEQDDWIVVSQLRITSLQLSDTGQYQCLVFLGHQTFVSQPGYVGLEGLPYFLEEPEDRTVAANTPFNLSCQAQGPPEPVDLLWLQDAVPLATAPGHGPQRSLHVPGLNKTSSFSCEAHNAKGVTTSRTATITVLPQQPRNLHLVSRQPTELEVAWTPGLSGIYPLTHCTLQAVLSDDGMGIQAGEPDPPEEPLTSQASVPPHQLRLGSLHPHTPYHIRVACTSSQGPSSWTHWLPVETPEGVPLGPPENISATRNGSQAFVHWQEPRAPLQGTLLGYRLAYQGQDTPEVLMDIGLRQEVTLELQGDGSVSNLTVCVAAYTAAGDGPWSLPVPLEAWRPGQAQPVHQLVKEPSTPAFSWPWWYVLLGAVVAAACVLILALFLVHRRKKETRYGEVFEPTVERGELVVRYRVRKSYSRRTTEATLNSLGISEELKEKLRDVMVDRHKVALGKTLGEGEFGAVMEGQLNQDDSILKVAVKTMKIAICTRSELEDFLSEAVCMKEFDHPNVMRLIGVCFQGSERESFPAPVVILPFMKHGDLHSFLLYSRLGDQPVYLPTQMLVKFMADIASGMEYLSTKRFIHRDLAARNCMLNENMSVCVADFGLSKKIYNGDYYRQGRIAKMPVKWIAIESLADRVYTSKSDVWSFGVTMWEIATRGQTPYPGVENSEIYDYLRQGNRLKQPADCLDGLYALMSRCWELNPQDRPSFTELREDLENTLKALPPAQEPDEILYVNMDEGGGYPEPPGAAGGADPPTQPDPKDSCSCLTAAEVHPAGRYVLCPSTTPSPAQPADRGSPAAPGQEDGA

[2] = target: Insulin-like growth factor 1 receptor (Homo sapiens, UniProt P08069); assay: Inhibition of IGF1R (unknown origin) by FRET assay
Insulin-like growth factor 1 receptor, sequence (P08069 31-736 limits assumed): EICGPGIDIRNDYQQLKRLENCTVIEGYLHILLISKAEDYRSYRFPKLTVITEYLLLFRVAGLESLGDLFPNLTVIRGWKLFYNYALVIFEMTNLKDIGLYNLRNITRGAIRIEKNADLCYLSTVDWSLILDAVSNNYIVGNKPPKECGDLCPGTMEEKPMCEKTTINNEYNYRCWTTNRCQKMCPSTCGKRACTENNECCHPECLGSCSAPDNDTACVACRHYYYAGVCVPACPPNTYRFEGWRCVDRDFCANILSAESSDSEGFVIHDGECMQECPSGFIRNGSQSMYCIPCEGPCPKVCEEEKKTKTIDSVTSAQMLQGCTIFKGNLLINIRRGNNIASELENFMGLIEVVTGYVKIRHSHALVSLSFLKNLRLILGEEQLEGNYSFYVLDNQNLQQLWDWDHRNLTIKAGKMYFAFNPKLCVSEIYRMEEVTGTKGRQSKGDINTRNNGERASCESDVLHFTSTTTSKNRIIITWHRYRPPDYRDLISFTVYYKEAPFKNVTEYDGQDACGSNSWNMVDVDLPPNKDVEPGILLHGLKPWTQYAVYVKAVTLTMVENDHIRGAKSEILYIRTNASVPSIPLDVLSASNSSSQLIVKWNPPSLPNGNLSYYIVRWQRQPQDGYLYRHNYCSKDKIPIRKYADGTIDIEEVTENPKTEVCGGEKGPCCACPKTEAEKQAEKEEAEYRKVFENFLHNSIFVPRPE
Insulin-like growth factor 1 receptor, sequence (P08069 741-1367 limits assumed): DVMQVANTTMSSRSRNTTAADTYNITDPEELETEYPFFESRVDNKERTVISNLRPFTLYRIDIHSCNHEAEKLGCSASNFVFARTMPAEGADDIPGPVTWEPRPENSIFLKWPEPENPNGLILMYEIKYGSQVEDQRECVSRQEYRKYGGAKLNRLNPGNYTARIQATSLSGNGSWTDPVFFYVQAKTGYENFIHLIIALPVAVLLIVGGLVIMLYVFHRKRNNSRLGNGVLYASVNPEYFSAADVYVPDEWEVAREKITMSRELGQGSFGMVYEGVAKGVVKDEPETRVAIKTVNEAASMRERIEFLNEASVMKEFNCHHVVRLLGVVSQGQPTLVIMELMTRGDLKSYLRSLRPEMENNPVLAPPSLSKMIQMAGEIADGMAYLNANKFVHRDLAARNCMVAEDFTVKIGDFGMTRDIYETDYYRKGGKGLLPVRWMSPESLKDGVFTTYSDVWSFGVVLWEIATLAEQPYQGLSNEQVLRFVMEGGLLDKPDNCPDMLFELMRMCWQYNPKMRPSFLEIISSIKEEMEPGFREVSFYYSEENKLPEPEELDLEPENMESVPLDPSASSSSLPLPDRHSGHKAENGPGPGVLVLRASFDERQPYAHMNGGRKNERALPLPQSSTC

T84 = assay: Antiproliferative activity against human T84 cells assessed as growth inhibition incubated at 10 uM for 24 hrs by MTT assay relative to control; assay type: functional; conditions: read-out: GI
[3] = target: Tyrosine-protein kinase JAK1 (Homo sapiens, UniProt P23458); assay: Inhibition of JAK1 (unknown origin) by FRET assay
Tyrosine-protein kinase JAK1, sequence (P23458 whole entry): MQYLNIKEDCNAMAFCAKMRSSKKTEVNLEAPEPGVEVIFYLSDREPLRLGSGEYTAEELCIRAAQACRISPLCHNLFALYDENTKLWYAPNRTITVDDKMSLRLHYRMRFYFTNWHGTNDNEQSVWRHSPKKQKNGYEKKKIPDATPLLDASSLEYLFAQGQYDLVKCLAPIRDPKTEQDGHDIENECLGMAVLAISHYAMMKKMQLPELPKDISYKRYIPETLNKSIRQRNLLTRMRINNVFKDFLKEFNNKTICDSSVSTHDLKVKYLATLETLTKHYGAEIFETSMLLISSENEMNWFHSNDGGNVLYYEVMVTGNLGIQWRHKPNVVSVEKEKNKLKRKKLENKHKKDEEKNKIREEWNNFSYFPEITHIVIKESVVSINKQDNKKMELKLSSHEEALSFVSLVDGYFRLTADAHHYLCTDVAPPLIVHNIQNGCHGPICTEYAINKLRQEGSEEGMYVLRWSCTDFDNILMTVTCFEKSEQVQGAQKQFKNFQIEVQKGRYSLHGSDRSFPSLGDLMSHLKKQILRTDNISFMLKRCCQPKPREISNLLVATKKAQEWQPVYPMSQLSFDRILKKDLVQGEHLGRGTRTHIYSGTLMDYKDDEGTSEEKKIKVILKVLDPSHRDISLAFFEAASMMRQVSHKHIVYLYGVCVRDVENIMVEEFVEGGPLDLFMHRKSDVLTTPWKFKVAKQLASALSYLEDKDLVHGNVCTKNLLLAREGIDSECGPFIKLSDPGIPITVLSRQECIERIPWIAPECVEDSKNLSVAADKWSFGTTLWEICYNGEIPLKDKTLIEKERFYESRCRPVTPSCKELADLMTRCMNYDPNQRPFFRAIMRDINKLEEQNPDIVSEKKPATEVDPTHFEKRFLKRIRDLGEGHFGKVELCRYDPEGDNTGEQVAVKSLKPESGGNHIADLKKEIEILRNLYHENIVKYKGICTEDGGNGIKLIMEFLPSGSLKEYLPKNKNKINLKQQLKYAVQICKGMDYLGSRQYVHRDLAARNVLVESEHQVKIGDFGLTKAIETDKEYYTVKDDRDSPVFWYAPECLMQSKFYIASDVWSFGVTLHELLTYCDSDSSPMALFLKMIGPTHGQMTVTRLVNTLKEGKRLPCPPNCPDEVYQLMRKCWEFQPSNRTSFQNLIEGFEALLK

SK-MEL-1 = assay: Antiproliferative activity against human SK-MEL-1 cells assessed as growth inhibition incubated at 10 uM for 24 hrs by MTT assay relative to control; assay type: functional; conditions: read-out: GI
A-375 = assay: Antiproliferative activity against human A-375 cells assessed as growth inhibition incubated at 10 uM for 24 hrs by MTT assay relative to control; assay type: functional; conditions: read-out: GI
[4] = Selectivity index, ratio of IC50 for CDK5 (unknown origin) to CDK1 (unknown origin)
MDA-PATC53 [5] = assay: Induction of cell cycle arrest in human MDA-PATC53 cells assessed as accumulation of cells at S phase incubated at IC50 for 24 hrs measured by flow cytometric analysis; assay type: functional, cell-based
[6] = target: Protein-tyrosine kinase 2-beta (Homo sapiens, UniProt Q14289); assay: Inhibition of PTK2B (unknown origin) by FRET assay
Protein-tyrosine kinase 2-beta, sequence (Q14289 whole entry): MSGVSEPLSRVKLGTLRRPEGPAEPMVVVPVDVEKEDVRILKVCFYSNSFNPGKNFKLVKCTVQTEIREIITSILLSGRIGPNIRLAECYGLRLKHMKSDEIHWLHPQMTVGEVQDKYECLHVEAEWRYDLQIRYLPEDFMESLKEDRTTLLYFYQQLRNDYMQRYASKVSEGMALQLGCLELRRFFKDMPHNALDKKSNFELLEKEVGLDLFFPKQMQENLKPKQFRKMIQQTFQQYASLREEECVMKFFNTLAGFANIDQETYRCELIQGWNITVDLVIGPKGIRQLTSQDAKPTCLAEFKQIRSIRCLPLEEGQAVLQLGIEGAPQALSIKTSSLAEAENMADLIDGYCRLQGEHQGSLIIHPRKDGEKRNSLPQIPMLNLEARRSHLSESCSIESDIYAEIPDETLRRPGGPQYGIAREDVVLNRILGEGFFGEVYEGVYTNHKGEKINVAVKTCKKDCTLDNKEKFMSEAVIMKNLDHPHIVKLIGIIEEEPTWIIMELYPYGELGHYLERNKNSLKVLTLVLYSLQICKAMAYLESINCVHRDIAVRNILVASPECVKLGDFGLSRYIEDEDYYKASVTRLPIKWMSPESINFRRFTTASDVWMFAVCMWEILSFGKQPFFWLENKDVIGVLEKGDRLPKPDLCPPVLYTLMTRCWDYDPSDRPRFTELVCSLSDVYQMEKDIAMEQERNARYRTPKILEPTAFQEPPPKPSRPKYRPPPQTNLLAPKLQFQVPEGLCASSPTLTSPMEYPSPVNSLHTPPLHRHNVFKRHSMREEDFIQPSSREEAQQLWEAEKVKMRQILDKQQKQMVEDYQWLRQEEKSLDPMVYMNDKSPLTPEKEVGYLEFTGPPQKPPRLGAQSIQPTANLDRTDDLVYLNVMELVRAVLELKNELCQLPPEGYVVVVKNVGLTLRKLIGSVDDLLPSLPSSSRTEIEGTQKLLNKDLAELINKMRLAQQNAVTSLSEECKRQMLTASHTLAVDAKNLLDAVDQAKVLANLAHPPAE

BT-549 = assay: Antiproliferative activity against human BT-549 cells assessed as growth inhibition incubated at 10 uM for 24 hrs by MTT assay relative to control; assay type: functional; conditions: read-out: GI
[7] = Antiproliferative activity against human MDA-PATC53 cells assessed as growth inhibition incubated at 10 uM for 24 hrs by MTT assay relative to control; assay type: functional; conditions: read-out: GI
[8] = target: Cyclin-dependent kinase 2 (Homo sapiens, UniProt P24941); assay: Inhibition of CDK2 (unknown origin) by FRET assay
[9] = Induction of cell cycle arrest in human MDA-PATC53 cells assessed as accumulation of cells at G2/M phase incubated at IC50 for 24 hrs measured by flow cytometric analysis (reference value: 9%); assay type: functional
KG-1 = assay: Antiproliferative activity against human KG-1 cells assessed as growth inhibition incubated at 10 uM for 24 hrs by MTT assay relative to control; assay type: functional; conditions: read-out: GI
[10] = target: Serine/threonine-protein kinase B-raf (Homo sapiens, UniProt P15056); assay: Inhibition of BRAF (unknown origin) by FRET assay
Serine/threonine-protein kinase B-raf, sequence (P15056 whole entry): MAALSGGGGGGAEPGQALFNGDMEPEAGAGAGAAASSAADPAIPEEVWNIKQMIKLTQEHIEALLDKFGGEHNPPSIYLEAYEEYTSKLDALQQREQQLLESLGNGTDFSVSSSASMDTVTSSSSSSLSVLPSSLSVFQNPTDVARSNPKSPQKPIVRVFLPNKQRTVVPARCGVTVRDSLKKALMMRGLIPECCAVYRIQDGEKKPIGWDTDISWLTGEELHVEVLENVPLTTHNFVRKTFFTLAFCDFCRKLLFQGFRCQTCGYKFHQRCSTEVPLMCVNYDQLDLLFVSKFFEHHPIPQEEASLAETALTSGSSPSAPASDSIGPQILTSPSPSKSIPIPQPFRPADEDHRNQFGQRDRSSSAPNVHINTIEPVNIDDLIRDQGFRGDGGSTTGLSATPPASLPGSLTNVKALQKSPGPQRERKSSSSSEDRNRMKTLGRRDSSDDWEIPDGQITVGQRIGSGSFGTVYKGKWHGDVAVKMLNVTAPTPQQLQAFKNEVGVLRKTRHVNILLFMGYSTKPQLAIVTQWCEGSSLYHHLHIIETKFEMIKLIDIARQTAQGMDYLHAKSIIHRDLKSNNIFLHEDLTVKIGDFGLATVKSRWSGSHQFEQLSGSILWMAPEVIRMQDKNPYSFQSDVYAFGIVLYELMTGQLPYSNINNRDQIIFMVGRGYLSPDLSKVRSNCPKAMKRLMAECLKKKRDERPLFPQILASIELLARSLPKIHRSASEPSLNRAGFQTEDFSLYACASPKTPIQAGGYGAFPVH

HT-29 = assay: Antiproliferative activity against human HT-29 cells assessed as growth inhibition incubated at 10 uM for 24 hrs by MTT assay relative to control; assay type: functional; conditions: read-out: GI
[11] = Selectivity index, ratio of IC50 for CDK2 (unknown origin) to CDK1 (unknown origin)
MCF7 = assay: Antiproliferative activity against human MCF7 cells assessed as growth inhibition incubated at 10 uM for 24 hrs by MTT assay relative to control; assay type: functional; conditions: read-out: GI
[12] = Antiproliferative activity against human PL45 cells assessed as growth inhibition incubated at 10 uM for 24 hrs by MTT assay relative to control; assay type: functional; conditions: read-out: GI
MDA-PATC53 [13] = assay: Downregulation of CDK1 expression in human MDA-PATC53 cells incubated at IC50 for 24 hrs by Western blotting analysis; assay type: functional, cell-based
[14] = Antiproliferative activity against human MDA-PATC53 cells assessed as growth inhibition incubated for 24 hrs by MTT assay; assay type: functional, cell-based; conditions: MDA-PATC53, 24 h
[15] = target: Fibroblast growth factor receptor (Homo sapiens, UniProt P22607+P11362+P22455+P21802); assay: Inhibition of FGFR (unknown origin) by FRET assay; assay type: protein assay
MOLT-4 = assay: Antiproliferative activity against human MOLT-4 cells assessed as growth inhibition incubated at 10 uM for 24 hrs by MTT assay relative to control; assay type: functional; conditions: read-out: GI
[16] = Antiproliferative activity against human PL45 cells assessed as growth inhibition incubated for 24 hrs by MTT assay; assay type: functional, cell-based; conditions: PL45, 24 h
G-361 = assay: Antiproliferative activity against human G-361 cells assessed as growth inhibition incubated at 10 uM for 24 hrs by MTT assay relative to control; assay type: functional; conditions: read-out: GI
[17] = target: Cyclin-dependent kinase 5 (Homo sapiens, UniProt Q00535); assay: Inhibition of CDK5 (unknown origin) by FRET assay
Cyclin-dependent kinase 5, sequence (Q00535 whole entry): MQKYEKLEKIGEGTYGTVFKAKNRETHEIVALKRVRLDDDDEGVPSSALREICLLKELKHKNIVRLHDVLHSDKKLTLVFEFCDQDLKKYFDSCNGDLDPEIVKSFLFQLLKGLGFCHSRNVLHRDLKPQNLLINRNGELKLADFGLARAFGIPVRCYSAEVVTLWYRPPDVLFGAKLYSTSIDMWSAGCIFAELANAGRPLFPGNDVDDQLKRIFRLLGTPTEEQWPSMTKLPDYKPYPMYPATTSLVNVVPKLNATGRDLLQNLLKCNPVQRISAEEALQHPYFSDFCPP

[18] = target: Cyclin-dependent kinase 1 (Homo sapiens, UniProt P06493); assay: Inhibition of CDK1 (unknown origin) by FRET assay
Cyclin-dependent kinase 1, sequence (P06493 whole entry): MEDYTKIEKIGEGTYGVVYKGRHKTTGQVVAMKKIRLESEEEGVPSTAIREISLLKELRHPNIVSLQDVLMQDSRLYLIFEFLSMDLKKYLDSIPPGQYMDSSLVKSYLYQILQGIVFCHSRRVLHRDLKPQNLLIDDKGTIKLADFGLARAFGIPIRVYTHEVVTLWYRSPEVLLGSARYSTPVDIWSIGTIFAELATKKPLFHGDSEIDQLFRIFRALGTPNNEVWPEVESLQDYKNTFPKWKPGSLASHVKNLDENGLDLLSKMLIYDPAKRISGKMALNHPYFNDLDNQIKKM

Compound | IC50 [1] [nM] | IC50 [2] [nM] | inhibition of growth at 10 µM (T84) [%] | IC50 [3] [nM] | inhibition of growth at 10 µM (SK-MEL-1) [%] | inhibition of growth at 10 µM (A-375) [%] | Ratio IC50 [4] | IC50 [6] [nM] | inhibition of growth at 10 µM (BT-549) [%] | inhibition of growth at 10 µM [7] [%] | IC50 [8] [nM] | inhibition of growth at 10 µM (KG-1) [%] | IC50 [10] [nM] | inhibition of growth at 10 µM (HT-29) [%] | Ratio IC50 [11] | inhibition of growth at 10 µM (MCF7) [%] | inhibition of growth at 10 µM [12] [%] | IC50 [14] [nM] | IC50 [15] [nM] | inhibition of growth at 10 µM (MOLT-4) [%] | other results
S=C(Nc1cccc(Cl)c1)N1CCN(c2nnc(Cc3ccccc3)c3ccccc23)CC1 | 2490 | 4290 | 81.7 | 8540 | 85.4 | 76.1 | 3.04 | 8960 | 79.3 | 96.8 | 622 | 69.1 | 1160 | 84.3 | 14 | 78.2 | 95.3 | 880 | 7620 | 85 | Activity (MDA-PATC53 [5]): Active; Activity [9]: 16%; Activity (MDA-PATC53 [13]): Active; IC50 [16]: 1140 nM; inhibition of growth at 10 µM (G-361): 88%; IC50 [17]: 135 nM; IC50 [18]: 44.5 nM
COc1ccc(Cc2nnc(N3CCN(C(=O)Nc4ccc(Cl)c(C(F)(F)F)c4)CC3)c3ccccc23)cc1 | 5650 | 5510 | 89.6 | 5260 | 74 | 89.2 | 10 | 3630 | 85.5 | 99 | 305 | 72.3 | 2830 | 87.4 | 8.29 | 71.4 | 97.6 | 510 | 4626 | 84.1 | Activity (MDA-PATC53 [5]): Active; Activity [9]: 21%; Activity (MDA-PATC53 [13]): Active; IC50 [16]: 740 nM; inhibition of growth at 10 µM (G-361): 61.4%; IC50 [17]: 369 nM; IC50 [18]: 36.8 nM
O=C(c1ccccc1)N1CCN(c2nnc(Cc3ccccc3)c3ccccc23)CC1 | 4880 | 3660 | 26.3 | 7180 | 54.9 | 32.1 | 4.41 | 3570 | 24.3 | 75.8 | 115 | 73.6 | 7820 | 40.4 | 1.84 | 38.4 | 68.5 | 3420 | 5254 | 51.2 | IC50 [16]: 5030 nM; inhibition of growth at 10 µM (G-361): 47.9%; IC50 [17]: 276 nM; IC50 [18]: 62.5 nM
COc1ccc(NC(=O)N2CCN(c3nnc(Cc4ccccc4)c4ccccc34)CC2)cc1 | 2330 | 4260 | 48 | 8500 | 54.3 | 34.9 | 4.22 | 7250 | 43.9 | 85.2 | 108 | 71.3 | 2430 | 54.1 | 1.63 | 34 | 71.5 | 1700 | 4567 | 52.9 | IC50 [16]: 4600 nM; inhibition of growth at 10 µM (G-361): 25.7%; IC50 [17]: 280 nM; IC50 [18]: 66.5 nM
COc1ccc(Cc2nnc(N3CCN(C(=S)Nc4cccc(Cl)c4)CC3)c3ccccc23)cc1 | 5650 | 8550 | 88.2 | 2420 | 84.2 | 86.4 | 8.39 | 8950 | 78 | 97.1 | 189 | 74.2 | 8140 | 85 | 4.47 | 62 | 93.5 | 730 | 2538 | 89.3 | Activity (MDA-PATC53 [5]): Active; Activity [9]: 14%; Activity (MDA-PATC53 [13]): Active; IC50 [16]: 1000 nM; inhibition of growth at 10 µM (G-361): 92.3%; IC50 [17]: 354 nM; IC50 [18]: 42.2 nM
